Results published in publication PMC6581027, “In vitro Radiopharmaceutical Evidence for MCHR1 Binding Sites in Murine Brown Adipocytes” (Frontiers in Endocrinology, 2019).
Where two headings read alike, the source gives them in different places.

Tests used:
[1] = molecular target: ADRB3; design: method as in PMID 20590599; conditions: assumed for Ki calculation; ref [31]; cited from earlier work
[2] = test system: murine brown adipocytes; assay: [18F]FDG uptake in brown adipocytes (brown adipocyte activation); type: cell-based; conditions: 30 min pre-treatment, baseline (vehicle) = 100% uptake/well, mean ± SD
Description: (§1) Cells were maintained under standard conditions in a humidified incubator (37°C, 5% CO2). CHO-K1 cells expressing the human adrenergic beta-3 receptor (CHO-K1-ADRB3) were purchased from PerkinElmer (ValiScreen® ES-035-C). CHO-K1-ADRB3 were grown using Ham's F12 (Nut Mix) supplemented with 10% FCS, 2 mM L-glutamine, penicillin (100 Units/mL), streptomycin (100 μg/mL), and 0.4 mg/mL geneticin. CHO-K1 cells were a generous gift from Prof. Karl Norbert Klotz (University Würzburg, Germany) and cultured likewise without selection antibiotics. Immortalized murine brown pre-adipocytes were provided by the Department of Medicine III (Medical University of Vienna, Austria) and cultured in high glucose Dulbecco's Modified Eagle's Medium (DMEM) supplemented with 10% FBS, 1 mM pyruvate, penicillin (100 Units/mL) and streptomycin (100 μg/mL). When cells were confluent, differentiation to brown adipocytes was induced for 48 h using 1.72 μM insulin (human recombinant), 1 nM thyroid hormone (T3), 0.5 mM 3-isobutyl-1-methylxanthine (IBMX), 125 nM indomethacin, and 1 μM dexamethasone. After induction, the medium was changed to post-differentiation medium (high glucose DMEM) supplemented with 10% FBS, 1 mM pyruvate, penicillin (100 Units/mL), streptomycin (100 μg/mL), 1.72 μM insulin, and 1 nM T3. The post-differentiation medium was replenished every second day. Brown adipocytes were used for experimental investigations 4–6 days after induction. Oil Red O staining was performed according to the manufacturer's instructions. Counterstaining was performed using haematoxylin.
Brown pre-adipocytes were seeded, grown to confluence and differentiated in 6-well plates as described in section General. Cell starving was performed for 1 h using unsupplemented, glucose-free DMEM. […] [^18F]FDG uptake was performed for 50 min at 37°C (humidified atmosphere, 5% CO2). Supernatant was taken off, cells were washed with ice-cold PBS and finally trypsinized. Radioactive cell fractions were gamma counted (2480 Wizard^2, PerkinElmer) and normalized to percentage uptake per well. [^18F]FDG uptake under baseline conditions refers to 100% uptake. Three independent experiments were performed in triplicates. Statistical analysis was performed using an unpaired, two-tailed t-test.

[3] = molecular target: MCHR1; design: method as in PMID 28808288; conditions: previously described; ref [28]; cited from earlier work
[4] = molecular target: T1, human adrenergic beta-3 receptor (ADRB3) (Homo sapiens, UniProt P13945); assay: Competitive binding assay, CHO-K1-ADRB3 cell membranes, [3H]CGP-12177 radioligand; conditions: for Ki: CHO-K1-ADRB3 membranes, 5 nM [3H]CGP-12177, 90 min 27°C, read-out: Ki ADRB3 experimental; for ADRB3/ MCHR1 (ratio of Ki values): selectivity toward MCHR1, ADRB3 Ki measured, MCHR1 Ki from ref [28]
T1 construct: host or cells: CHO-K1
Description: CHO-K1-ADRB3 cell membranes were prepared from 175 cm^2 cell culture flasks, when 80% confluence was reached. All procedures were performed at 4°C. Cells were scraped off using ice-cold lysis buffer (10 mM Tris-HCl pH 7.4, 1 mM EDTA) and protease inhibitor cocktail was added according to the manufacturer's instructions (Sigma-Aldrich, St. Louis, USA). The cell suspension was homogenized using cannulas (29 G) and centrifuged for 10 min at 1,000 × g. The obtained supernatant was centrifuged for 30 min at 100,000 × g. Subsequently, the pellet was suspended using 50 mM Tris-HCl pH 7.4 and aliquoted. Aliquots were shock-frozen in liquid nitrogen and stored at −80°C until usage. Protein concentration of the cell membrane suspension was determined using BCA Protein Assay Kit (Thermo Scientific, Waltham, USA).
All stated concentrations refer to the final assay volume of 500 μL buffer (25 mM HEPES pH 7.4, 1 mM EDTA, 0.5% BSA). Competitive binding assays were performed using 13.6 ng/μL ADRB3 expressing CHO-K1 cell membrane suspension (cf. 2.3) and 5 nM [^3H]CGP-12177 as the respective radioligand. […] Nonspecific binding was determined using 10 μM carazolol. Total binding was determined in the presence of 1% respective solvent. Incubation was performed for 90 min at 27°C. Filtration through GF/B filters (Whatman®, presoaked in 0.05% PEI) was performed using a cell harvester (Brandel®, Gaithersburg, MD, USA) and was followed by two washing steps using ice-cold wash buffer (10 mM HEPES, 500 mM NaCl, pH 7.4). Filter pieces containing receptor-bound radioactivity were shaken for 30 min in scintillation cocktail (Ultima Gold™, PerkinElmer, Waltham, USA) before liquid scintillation counting (Hidex 300 SL, Turku, Finland). IC50 fitted binding curves were generated using the GraphPad Software 5.0 (La Jolla, CA, USA) using nonlinear regression.

[5] = test system: murine brown adipocytes; assay: Specific [11C]SNAP-7941 binding to brown adipocytes (competition); type: cell-based; conditions: 2 μM unlabeled compound; for [11C]SNAP-7941 binding per well referring to baseline: 30 min pre-treatment, baseline (vehicle) = 100% binding/well, mean ± SD
Description: as §1
Brown pre-adipocytes were seeded, grown to confluence and differentiated in six-well plates as described above. Thirty minutes prior to the experiment, maintenance medium (cf. 2.1) was discarded and replaced with respective serum- and additive-free medium to avoid plasma protein binding of the PET-tracer. Cell starving, as performed for [^18F]FDG uptake measurements, was not indicated for [^11C]SNAP-7941 binding experiments. […] Baseline was determined using DMSO or ethanol, respectively. Sample processing, data analysis and statistical testing were performed as described in [^18F]FDG Uptake Experiments: Effects of MCHR1 Ligands on Brown Adipocyte Activation.

[6] = molecular target: T2, CHO-K1-ADRB3 cells (Homo sapiens, UniProt P13945); assay: Real-time kinetic displacement of [125I]Iodocyanopindolol binding (LigandTracer); type: cell-based; conditions: 20 μM non-radioactive compound applied after 60 min association phase
T2 construct: host or cells: CHO-K1
Description: 2.5 × 10^5 cells (CHO-K1, CHO-K1-ADRB3) per cell culture dish were seeded 2 days prior to the experiment and incubated in an inclined position to allow an adherent cell pole at one side of the cell dish. Cell dish preparation was performed as previously described ([32], [33]). Real-time kinetic radioligand binding measurements were performed using a dedicated device for low energy gamma radiation (LigandTracer® Gray Technology, Ridgeview, Sweden). The assay protocol compromised consecutive radioactivity measurements of the target region (cell pole) and of the opposite pole of the petri dish, where no cells were seeded (background signal). Radioactivity was counted in each region for 3 s with a delay of 2 s over the time course of the experiment. Raw counts per second (cps) of the target region were corrected for background signal and for radioactive decay. Displacement of [^125I]Iodocyanopindolol binding was conducted after 1 h association phase of radioligand binding by consecutively applying rising concentrations of SNAP-7941 and FE@SNAP. The same volume of ethanol was added as vehicle control. Experiments were performed on at least three different days.

[7] = molecular target: ADRB3; design: method as in PMID 14730417, PMID 8719421, PMID 7903415, PMID 2570461; conditions: literature values for standard compounds; ref [43], [45]–[47]; read-out: Ki ADRB3 reference; cited from earlier work

T1 sequence (P13945 whole entry): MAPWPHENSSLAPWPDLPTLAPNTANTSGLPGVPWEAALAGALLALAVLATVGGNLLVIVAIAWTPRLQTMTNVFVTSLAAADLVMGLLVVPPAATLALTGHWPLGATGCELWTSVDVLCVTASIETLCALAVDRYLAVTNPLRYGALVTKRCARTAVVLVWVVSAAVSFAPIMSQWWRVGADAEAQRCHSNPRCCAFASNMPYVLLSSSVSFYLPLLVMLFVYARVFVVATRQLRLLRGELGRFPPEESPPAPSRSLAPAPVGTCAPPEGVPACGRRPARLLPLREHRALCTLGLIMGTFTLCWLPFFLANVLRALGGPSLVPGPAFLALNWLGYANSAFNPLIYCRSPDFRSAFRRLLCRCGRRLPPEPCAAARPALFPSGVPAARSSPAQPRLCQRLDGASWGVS
T2 sequence (P13945 whole entry): as above

Structure (SMILES)	[18F]FDG uptake referring to baseline ([2]; 20 μM compound)	Ki [3]	Ki ([4]; n = 3 in triplicates)	ADRB3/ MCHR1 (ratio of Ki values) [4]	[11C]SNAP-7941 binding per well referring to baseline [5]	Effect on [125I]Iodocyanopindolol binding to CHO-K1-ADRB3 cells [6]	[18F]FDG uptake referring to baseline ([2]; 2 μM compound)	other results
CC(C)(C)NCC(O)COc1cccc2[nH]c(=O)[nH]c12 (stereo not drawn) [[^3H]CGP-12177, 5,7-[^3H](-)CGP-12177]	–	–	–	–	–	–	–	Kd [1]: 109 nM
COCC1=C(C(=O)OC)[C@H](c2ccc(F)c(F)c2)N(C(=O)NCCCN2CCC(c3cccc(NC(C)=O)c3)CC2)C(=O)N1 [SNAP-7941]	63.24 ± 2.6%	3.91 ± 0.74 nM	14500 ± 300 nM	~3,708	77.1 ± 5.0%	did not affect binding	–	Reduction of [11C]SNAP-7941 binding ([5]; versus baseline): 22.9 ± 5.0%
C[C@H](Cc1ccc2c(c1)OC(C(=O)[O-])(C(=O)[O-])O2)NC[C@H](O)c1cccc(Cl)c1.[Na+].[Na+] [CL 316,243, reference compound]	–	–	–	–	91.1 ± 3.6%	–	137.7 ± 12.2%	–
CC(C)NCC(O)COc1cccc2[nH]c3ccccc3c12 (centres unmarked) [carazolol, reference compound]	–	–	–	–	–	–	–	Ki ([4]; three independent experiments in triplicates): 2 ± 0.3 nM; Ki [7]: 2 nM
CC(C)NC[C@H](O)COc1cccc2ccccc12.Cl [(S)-propranolol, (S)-propranolol hydrochloride]	–	–	–	–	95.8 ± 8.6%	–	did not alter	[11C]SNAP-7941 binding per well referring to baseline ([5]; listed as propranolol): did not alter
COCC1=C(C(=O)OCCF)C(c2ccc(F)c(F)c2)N(C(=O)NCCCN2CCC(c3cccc(NC(C)=O)c3)CC2)C(=O)N1 (centres unmarked) [FE@SNAP]	73.03 ± 13.6%	9.98 ± 1.12 nM	65100 ± 2900 nM	~6,523	–	did not affect binding	–	–
